One assay relates to DNA supercoiling. The following applies: read-out: IC50 in the DNA supercoiling assay; cited from earlier work.
Assay [1] has as its system MTB. Conditions: cited from earlier work.
The subject of the next assay is Staphylococcus aureus. The assay is described as follows: Antibacterial screening against S. aureus. Conditions: Staphylococcus aureus, read-out: S. aureus IC50. The format is cell-based.
Another assay deals with Escherichia coli. Briefly: Antibacterial screening against E. coli. It is filed as cell-based. The following applies: read-out: E. coli IC50.
Assay [2] deals with M. tuberculosis H37Ra-lux. The assay is described as follows: microbe, parasite or virus in culture. The format is cell-based, Mycobacterium tuberculosis. The following applies: Mycobacterium tuberculosis, H37RA, 168 h, read-out: M. tuberculosis H37Ra-lux IC50.
The test system of assay [3] is MTB. Conditions: cited from earlier work. This is another data set of the same source.
Assay [4] relates to MTB H37Rv. The following applies: cited from earlier work.
Assay [5] deals with MTB H37Rv. The following applies: cited from earlier work. The source holds these as a separate data set.

Values after ≈ are worked out from the molar mass of the structure shown. Where only a bound is given, the exact number is not on record here.

In general, IC50 refers to the midpoint of a concentration-inhibition curve. On to `COc1cnc2ccc(=O)n(CCN3CCN(C(=O)Nc4ccc([N+](=O)[O-])cc4)CC3)c2c1` [4-(2-(7-methoxy-2-oxo-1,5-naphthyridin-1-(2H)-yl)ethyl)-N-(4-nitrophenyl)piperazine-1-carboxamide], for which the half-maximal inhibitory concentration (IC50) with DNA supercoiling was 0.29 µM. Also, the “MTB MIC” value with MTB [1] is 3.45 µM.

On to `O=C(Nc1ccc(N2CCCN(C(=O)c3cnccn3)CC2)nc1)c1cccc([N+](=O)[O-])c1` [7f, 3-Nitro-N-(6-(4-(pyrazine-2-carbonyl)-1,4-diazepan-1-yl)pyridin-3-yl)benzamide], for which the IC50 (in the assay with Staphylococcus aureus; in the assay with Escherichia coli; in assay [2]) was greater than 64 µM throughout.

In the case of `O=C(Nc1ccc(N2CCCN(C(=O)c3cnccn3)CC2)nc1)c1cccc(Br)c1` [7g, 3-Bromo-N-(6-(4-(pyrazine-2-carbonyl)-1,4-diazepan-1-yl)pyridin-3-yl)benzamide], the 50% inhibitory concentration (IC50) (in the assay on Staphylococcus aureus; in the assay with Escherichia coli; in assay [2]) was greater than 64 µM each time.

Regarding `O=C(Nc1ccc(N2CCCN(C(=O)c3cnccn3)CC2)nc1)c1ccccc1I` [7h, 2-Iodo-N-(6-(4-(pyrazine-2-carbonyl)-1,4-diazepan-1-yl)pyridin-3-yl)benzamide], the half-maximal inhibitory concentration (IC50) (in the assay on Staphylococcus aureus; in the assay with Escherichia coli; in assay [2]) was greater than 64 µM each time.

On to `O=C(Nc1ccc(N2CCCN(C(=O)c3cnccn3)CC2)nc1)c1ccc(Br)cc1Cl` [7i, 4-Bromo-2-chloro-N-(6-(4-(pyrazine-2-carbonyl)-1,4-diazepan-1-yl)pyridin-3-yl)benzamide], for which the IC50 (with Staphylococcus aureus; in the assay with Escherichia coli; in assay [2]) was greater than 64 µM in each case.

On to `O=C(Nc1ccc(N2CCCN(C(=O)c3cnccn3)CC2)nc1)c1ccc(Cl)cc1Cl` [7j, 2,4-Dichloro-N-(6-(4-(pyrazine-2-carbonyl)-1,4-diazepan-1-yl)pyridin-3-yl)benzamide], for which the IC50 (in the assay on Staphylococcus aureus; in the assay on Escherichia coli; in assay [2]) was greater than 64 µM in each case.

For `O=C(Nc1ccc(N2CCCN(C(=O)c3cnccn3)CC2)nc1)c1ccncc1` [7l, N-(6-(4-(Pyrazine-2-carbonyl)-1,4-diazepan-1-yl)pyridin-3-yl)isonicotinamide], the IC50 (in the assay with Staphylococcus aureus; in the assay on Escherichia coli; in assay [2]) was greater than 64 µM in each case.

Consider `O=C(Nc1ccc(N2CCCN(C(=O)c3cnccn3)CC2)nc1)c1c(F)cccc1Cl` [7m, 2-Chloro-6-fluoro-N-(6-(4-(pyrazine-2-carbonyl)-1,4-diazepan-1-yl)pyridin-3-yl)benzamide], for which the concentration for half-maximal inhibition (IC50) (in the assay with Staphylococcus aureus; in the assay on Escherichia coli; in assay [2]) was greater than 64 µM each time.

For `O=C(Nc1ccc(C(F)(F)F)cc1)c1cnccn1` [A, N-(4-(trifluoromethyl)phenyl)pyrazine-2-carboxamide], the “MIC, anti-mycobacterial activity” value in the assay on MTB [3] is no more than 0.002 µg/mL.

Turning to `Cc1cccc(NC(=O)c2cnccn2)c1Br` [B, N-(2-bromo-3-methylphenyl)pyrazine-2-carboxamide], in the assay on MTB [3], the “MIC, anti-mycobacterial activity” value was no more than 0.002 µg/mL.

For `Cc1ccc(NC(=O)c2cnccn2)cc1I` [C, N-(3-iodo-4-methylphenyl)pyrazine-2-carboxamide], the “MIC, anti-mycobacterial activity” value in the assay on MTB [3] was no more than 0.002 µg/mL.

For the compound `Cc1ccc(NC(=O)c2cnc(C(C)(C)C)c(Cl)n2)cc1I` [D, 5-(tert-Butyl)-6-chloro-N-(3-iodo-4-methylphenyl)pyrazine-2-carboxamide], in the assay with MTB [3], the “IC50, anti-mycobacterial activity” value is 0.728 µg/mL (≈ 1.69 µM) and the “IC90, anti-mycobacterial activity” value was 0.819 µg/mL (≈ 1.91 µM).

Turning to `O=C(NCCN1CCNCC1)c1cnccn1` [E, N-(2-(piperazin-1-yl)ethyl)pyrazine-2-carboxamide], in the assay on MTB H37Rv [4], the “MIC against MTB H37Rv” value was 12.2 µg/mL (≈ 51.9 µM).

For the compound `O=C(NCCN1CCOCC1)c1cnccn1` [F, N-(2-morpholinoethyl)pyrazine-2-carboxamide], the “MIC against MTB H37Rv” value with MTB H37Rv [4] is 8.0 µg/mL (≈ 33.9 µM).

Consider `O=S(=O)(c1ccccc1)n1cc(CN2CCN(c3nc4ccccc4c4ccccc34)CC2)nn1` [G, 6-(4-((1-(phenylsulfonyl)-1H-1,2,3-triazol-4-yl)methyl)piperazin-1-yl)phenanthridine], for which, in the assay with MTB H37Rv [5], the “MTB MIC against H37Rv” value was 1.56 µg/mL.

Regarding `c1ccc(N2CCN(c3nc4ccccc4c4ccccc34)CC2)nc1` [H, 6-(4-(pyridin-2-yl)piperazin-1-yl)phenanthridine], the “MTB MIC against H37Rv” value with MTB H37Rv [5] was 1.56 µg/mL.

`O=c1nc(N2CCN(C(=S)Nc3ccc(Cl)cc3)CC2)sc2ccc([N+](=O)[O-])cc12` [N-(4-chlorophenyl)-4-(6-nitro-4-oxo-4H-benzo[e][1,3]thiazin-2-yl)piperazine-1-carbothioamide]: the 50% inhibitory concentration (IC50) in the assay with DNA supercoiling is 0.51 µM. The “MTB MIC” value in the assay with MTB [1] is 4.41 µM.

Consider `NC(=O)c1cnccn1` [PZA, Pyrazinamide], for which, in the assay with MTB [3], the “IC90, anti-mycobacterial activity” value was greater than 20 µg/mL and the “MIC, anti-mycobacterial activity” value was 0.008 µg/mL (≈ 0.065 µM).

The record behind these values is PMC9050811 (RSC Advances, 2020).
